Test results published in ChEMBL document CHEMBL3879914, “Inhibitors of central nervous system vasoactive inhibitory peptide receptor 2” (2014).

How the values were obtained:
[1] = target: T1, Vasoactive intestinal polypeptide receptor 2 (Homo sapiens) (UniProt P41587); experiment: (§1) Antagonist activity at recombinant human N-terminal signal peptide/FLAG epitope-tagged VIPR2 expressed in HEK293 cells co-expressing CAMYEL assessed as inhibition of VIP-induced cAMP accumulation at 0.5 uM preincubated for 5 mins with luciferin, coelenterazine H followed by VIP addition measured after 5 mins by BRET assay relative to control; type: functional, cell-based
T1 sequence (whole entry): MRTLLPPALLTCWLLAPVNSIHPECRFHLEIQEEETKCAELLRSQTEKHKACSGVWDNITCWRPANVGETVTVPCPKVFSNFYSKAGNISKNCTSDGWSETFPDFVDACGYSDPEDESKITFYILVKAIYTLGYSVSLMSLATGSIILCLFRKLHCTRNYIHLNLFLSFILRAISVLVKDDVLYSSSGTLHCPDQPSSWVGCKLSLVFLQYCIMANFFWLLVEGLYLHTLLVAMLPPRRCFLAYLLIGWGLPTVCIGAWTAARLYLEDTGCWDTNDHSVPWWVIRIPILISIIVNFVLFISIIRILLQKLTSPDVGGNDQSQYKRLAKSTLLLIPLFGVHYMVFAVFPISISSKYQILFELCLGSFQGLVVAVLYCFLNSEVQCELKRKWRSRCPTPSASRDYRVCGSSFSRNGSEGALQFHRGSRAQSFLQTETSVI

[2] = target: T1, Vasoactive intestinal polypeptide receptor 2 (Homo sapiens); experiment: as §1, with “5” for “0.5”; type: functional, cell-based
[3] = target: T1, Vasoactive intestinal polypeptide receptor 2 (Homo sapiens); experiment: as §1, with “1” for “0.5”; type: functional, cell-based
[4] = target: T1, Vasoactive intestinal polypeptide receptor 2 (Homo sapiens); experiment: as §1, with “epitope-tagged Rluc8-fused” for “epitope-tagged”, “cells” for “cells co-expressing CAMYEL”, “human mVenus-beta-arrestin2 binding” for “cAMP accumulation”, “5” for “0.5”; type: cell-based
[5] = target: T1, Vasoactive intestinal polypeptide receptor 2 (Homo sapiens); experiment: as §1, with “epitope-tagged Rluc8-fused” for “epitope-tagged”, “cells” for “cells co-expressing CAMYEL”, “human mVenus-beta-arrestin2 binding” for “cAMP accumulation”, “1” for “0.5”; type: cell-based
[6] = target: T1, Vasoactive intestinal polypeptide receptor 2 (Homo sapiens); experiment: as §1, with “epitope-tagged Rluc8-fused” for “epitope-tagged”, “cells” for “cells co-expressing CAMYEL”, “human mVenus-beta-arrestin2 binding” for “cAMP accumulation”; type: cell-based

Row | Compound | inhibition [1] | inhibition [2] | inhibition [3] | inhibition [4] | inhibition [5] | inhibition [6]
1 | O=C([C@H](Cc1ccccc1)C[C@H](O)CNS(=O)(=O)c1ccc([N+](=O)[O-])cc1)N1CCOCC1 | -3.8% | 2.4% | -1.6% | -1.2% | 8.9% | -4.3 to 0.6%
2 | N#Cc1ccc(S(=O)(=O)NC[C@@H](O)C[C@@H](Cc2ccccc2)C(=O)N[C@H]2c3ccccc3C[C@H]2O)cc1 | 27.3% | 93.1% | 43.6% | 90.4% | 59.5% | 38.5 to 91.8%
3 | CN(C)c1ccc(S(=O)(=O)NC[C@@H](O)C[C@@H](Cc2ccccc2)C(=O)N[C@H]2c3ccccc3C[C@H]2O)cc1 | 9.4% | -3.4% | -1.4% | 8.7% | -1.6% | 2.65 to 4.2%
4 | O=C(Nc1ccc(S(=O)(=O)NC[C@@H](O)C[C@@H](Cc2ccccc2)C(=O)N[C@H]2c3ccccc3C[C@H]2O)cc1)C1CC1 | -2.4% | 34.3% | 23% | -4.2% | -0.3% | 6.4 to 15.1%
5 | O=C(NC1CCCCCC1)[C@@H](Cc1ccccc1)C[C@H](O)CNS(=O)(=O)c1ccc([N+](=O)[O-])cc1 | 15.5% | 14.3% | 10.6% | 6.8% | 3.6% | -4 to 10.6%
6 | O=C(NCc1ccccc1)c1ccc(S(=O)(=O)NC[C@@H](O)C[C@@H](Cc2ccccc2)C(=O)N[C@H]2c3ccccc3C[C@H]2O)cc1 | 25% | 90.5% | 32.3% | -7.7% | -2% | 4.8 to 41.4%
7 | CCN(CC)C(=O)c1ccc(S(=O)(=O)NC[C@@H](O)C[C@@H](Cc2ccccc2)C(=O)N[C@H]2c3ccccc3C[C@H]2O)cc1 | 2.5% | 31.8% | 5.9% | -1.2% | 3.1% | 0.3 to 15.3%
8 | O=C(N[C@H]1c2ccccc2C[C@H]1O)[C@H](Cc1ccccc1)C[C@H](O)CNS(=O)(=O)c1ccccc1C(F)(F)F | 23% | 24.7% | 18.8% | 21% | 24.8% | 10.7 to 22.9%
9 | O=C(NCCc1cccc(Cl)c1)[C@@H](Cc1ccccc1)C[C@H](O)CNS(=O)(=O)c1ccc([N+](=O)[O-])cc1 | 9.3% | 13% | 10.7% | 14.7% | 23.4% | 11.1 to 13.8%
10 | O=C(NCc1ccccc1)[C@@H](Cc1ccccc1)C[C@H](O)CNS(=O)(=O)c1ccc([N+](=O)[O-])cc1 | -1% | 4.9% | 1.5% | 7.2% | -4.1% | -0.3 to 6.05%
11 | Cc1cc(S(=O)(=O)NC[C@@H](O)C[C@@H](Cc2ccccc2)C(=O)N[C@H]2c3ccccc3C[C@H]2O)c(C)cc1Cl | 20.6% | 41.1% | 21.6% | 0.6% | 30.2% | 17.6 to 20.9%
12 | CC(C)Nc1ccc(S(=O)(=O)NC[C@@H](O)C[C@@H](Cc2ccccc2)C(=O)N[C@H]2c3ccccc3C[C@H]2O)cc1 | 17.2% | 20.6% | 18.2% | 11.8% | -2% | 8.1 to 16.2%
13 | COc1ccc(S(=O)(=O)NC[C@@H](O)C[C@@H](Cc2ccccc2)C(=O)N[C@H]2c3ccccc3C[C@H]2O)cc1 | 33.9% | 93.8% | 45.9% | 89.4% | 76.7% | 54.1 to 91.6%
14 | CCCCNC(=O)c1ccc(S(=O)(=O)NC[C@@H](O)C[C@@H](Cc2ccccc2)C(=O)N[C@H]2c3ccccc3C[C@H]2O)cc1 | -0.4% | 20.6% | 5.9% | -5.5% | 2.9% | -0.4 to 7.55%
15 | O=C(NCc1ccc(F)cc1F)[C@@H](Cc1ccccc1)C[C@H](O)CNS(=O)(=O)c1ccc([N+](=O)[O-])cc1 | -5.4% | 13.8 to 18.2% | 4.7 to 13.8% | 24% | 20% | 21.1 to 23.9%
16 | CNC(=O)[C@H](Cc1ccccc1)C[C@H](O)CNS(=O)(=O)c1ccc([N+](=O)[O-])cc1 | 7% | 9.3% | 8.3% | 3.2% | 4% | 6.25 to 6.9%
17 | C#CCNC(=O)[C@@H](Cc1ccccc1)C[C@H](O)CNS(=O)(=O)c1ccc([N+](=O)[O-])cc1 | 3.1% | 13.5% | 7.3% | 7% | 3.4% | 3.3 to 10.2%
18 | O=C(NC[C@@H](O)C[C@@H](Cc1ccccc1)C(=O)N[C@H]1c2ccccc2C[C@H]1O)C1CCCCCC1 | 18.4% | 17% | 17% | 10.5% | 16.4% | 13.8 to 24.4%

The next lines start with the values.

Row | inhibition [1] | inhibition [2] | inhibition [3] | inhibition [4] | inhibition [5] | inhibition [6] | Compound
19 | 17.6% | 12.3% | 14.8% | 31.5% | 25.3% | 21.9 to 23.9% | O=C(NC[C@@H](O)C[C@@H](Cc1ccccc1)C(=O)N[C@H]1c2ccccc2C[C@H]1O)c1c(Cl)cc(Cl)cc1Cl
20 | 13.2% | 23.5% | 16.3% | 9.7% | 11.1% | -2.9 to 16.6% | O=C(NC[C@@H](O)C[C@@H](Cc1ccccc1)C(=O)N[C@H]1c2ccccc2C[C@H]1O)c1ccc2ccccc2c1
21 | 13.8% | 69.5% | 22.1% | -1% | -1.6% | 6.3 to 34.2% | CNC(=O)c1ccc(S(=O)(=O)NC[C@@H](O)C[C@@H](Cc2ccccc2)C(=O)N[C@H]2c3ccccc3C[C@H]2O)cc1
22 | 17.4% | 20.3% | 18.5% | 5.2% | 6.8% | -3.8 to 12.8% | O=C(NC[C@@H](O)C[C@@H](Cc1ccccc1)C(=O)N[C@H]1c2ccccc2C[C@H]1O)c1cccc(Br)c1
23 | 21.4% | 18.5% | 21.9% | 23.4% | 31.6% | 17.3 to 20.9% | CS(=O)(=O)NC[C@@H](O)C[C@@H](Cc1ccccc1)C(=O)N[C@H]1c2ccccc2C[C@H]1O
24 | 20.8% | 26.6% | 20.2% | 25.8% | 16.1% | 26.2 to 45.8% | C#CCCCC(=O)NC[C@@H](O)C[C@@H](Cc1ccccc1)C(=O)N[C@H]1c2ccccc2C[C@H]1O
25 | 20.8% | 19.1% | 22.5% | 33.3% | 27.7% | 26.2 to 30.3% | O=C(NC[C@@H](O)C[C@@H](Cc1ccccc1)C(=O)N[C@H]1c2ccccc2C[C@H]1O)c1ccco1
26 | -0.9% | -7.3% | 2% | 4.3% | 1.1% | -1.5 to -0.8% | CNc1ccc(S(=O)(=O)NC[C@@H](O)C[C@@H](Cc2ccccc2)C(=O)N[C@H]2c3ccccc3C[C@H]2O)cc1
27 | 18.4% | 19.6% | 18.3% | 20% | 17.4% | 9.5 to 19.8% | O=C(NC[C@@H](O)C[C@@H](Cc1ccccc1)C(=O)N[C@H]1c2ccccc2C[C@H]1O)C(Cl)Cl
28 | 17.6% | 9.1% | 14.3% | 26.1% | 35.1% | 17.6 to 36.4% | O=C(NC[C@@H](O)C[C@@H](Cc1ccccc1)C(=O)N[C@H]1c2ccccc2C[C@H]1O)c1ccccc1[N+](=O)[O-]
29 | 14% | 21.1% | 22.3% | 16.4% | 18.6% | -0.5 to 18.8% | O=C(NC[C@@H](O)C[C@@H](Cc1ccccc1)C(=O)N[C@H]1c2ccccc2C[C@H]1O)c1ccc([N+](=O)[O-])cc1
30 | 7.4% | 26% | 6.4% | 0.2% | -1.8% | 6.4 to 13.1% | O=C(O)c1ccc(S(=O)(=O)NC[C@@H](O)C[C@@H](Cc2ccccc2)C(=O)N[C@H]2c3ccccc3C[C@H]2O)cc1
31 | 28.6% | 28.3% | 22.3% | 52% | 28.3% | 5.3 to 40.1% | O=C(N[C@H]1c2ccccc2C[C@H]1O)[C@H](Cc1ccccc1)C[C@H](O)CNS(=O)(=O)c1ccccc1F
